Experimental findings from PMC9269301, “Phytochemical Analysis, Antioxidant, Antimicrobial, and Cytotoxic Activity of Different Extracts of Xanthoparmelia stenophylla Lichen from Stara Planina, Serbia” (Plants, 2022) are described below.

Converted amounts (≈) assume the structure as drawn. Like-named read-outs stand apart in the source and are kept apart here. Marks after values point to notes of the source that are not given here. A value given as a limit tells only on which side of the number the result lay.

One test relates to B. subtilis ATCC 6633. Briefly: Microdilution with resazurin, antibacterial. The class given is cell-based, Bacillus subtilis. The protocol: (§1) The tested methanol, acetone, and n-hexane extracts, as well as the component (usnic acid) of X. stenophylla, were dissolved in 10% dimethyl sulfoxide (DMSO) and then diluted into the nutrient liquid medium. DMSO was obtained from Acros Organics (Fair Lawn, NJ, USA). Resazurin was obtained from Alfa Aesar GmbH & Co. (KG, Karlsruhe, Germany).
(§2) The antimicrobial activity of the extracts and components was tested against 19 microorganisms. The experiment involved 15 strains of bacteria (i.e., 6 standard strains: Staphylococcus aureus ATCC 6538, Bacillus subtilis ATCC 6633, Proteus mirabilis ATCC 12453, Pseudomonas aeruginosa ATCC 27853, Klebsiella pneumoniae ATCC 70063, and Escherichia coli ATCC 25922; 9 isolates: Staphylococcus aureus, Escherichia coli, Salmonella enterica, Salmonella Typhimurium, Proteus mirabilis, Klebsiella pneumoniae, Pseudomonas aeruginosa, Bacillus subtilis, and Bacillus cereus). In addition, four fungal strains (i.e., two standard strains: Candida albicans ATCC 10231 and Aspergillus niger ATCC 16888; two isolates: Saccharomyces cerevisiae and Candida albicans) were tested. All isolates were a generous gift from the Institute of Public Health, Kragujevac. The other microorganisms were provided from the collection held by the Microbiology Laboratory Faculty of Science, University of Kragujevac.
(§3) The bacterial suspensions were prepared by the direct colony method. The turbidity of the initial suspension was adjusted using a densitometer (DEN-1, BioSan, Riga, Latvia). When adjusted to the turbidity of the 0.5 McFarland’s standard (Andrews, 2005) the bacteria suspension contained approximately 10^8 colony-forming units (CFU)/mL, and the suspension of yeast contained 10^6 CFU/mL; 1:100 dilutions of the initial suspension were additionally prepared in sterile 0.85% saline. The suspensions of fungal spores were prepared by gentle stripping of spores from slopes with growing mycelia. The resulting suspensions were 1:1000 diluted in sterile 0.85% saline.
(§4) Antimicrobial activity was tested by determining the minimum inhibitory concentrations (MICs) and minimum microbicidal concentrations (MBCs) using the microdilution plate method with resazurin [56]. The 96-well plates were prepared by dispensing 100 μL of Mueller–Hinton broth for bacteria and Sabouard broth for fungi into each well. A 10 μL aliquot from the stock solution of the tested extract or component was added to the first row of the plate. Then, two-fold serial dilutions were performed using a multichannel pipette. The obtained concentration range was from 10 to 0.08 mg/mL. The method is described in detail in [76].
(§5) Each test included growth control and sterility control.
(§6) Minimum microbicidal concentrations were determined by plating 10 μL of samples from wells where no indicator color change or no mycelia growth was recorded on a nutrient agar medium. At the end of the incubation period, the lowest concentration with no growth (no colony) was defined as the minimum microbicidal concentration.
A general note: In broth dilution the organism is exposed to a series of concentrations in liquid medium.

The next test concerns B. subtilis (isolate). In words: Microdilution with resazurin, antibacterial. The class given is cell-based, Bacillus subtilis. The method, then: as §1, §2, §3, §4, §5, §6
A further test has as its system E. coli ATCC 25922. Briefly: Microdilution with resazurin, antibacterial. It counts as cell-based, Escherichia coli. The method, then:
as §1, §2, §3, §4, §5, §6

The next test relates to E. coli (isolate). In words: Microdilution with resazurin, antibacterial. The class given is cell-based, Escherichia coli. The protocol:
as §1, §2, §3, §4, §5, §6

The next test deals with S. Typhimurium (isolate). Briefly: Microdilution with resazurin, antibacterial. It counts as cell-based, Salmonella Typhimurium. The method, then: as §1, §2, §3, §4, §5, §6
The nature of test [1]: Hydroxyl radical scavenging activity (2-deoxyribose). Particulars: mean ± SD, triplicate. The class given is biochemical. The method, then: All chemicals for the antioxidant activity test were purchased from Sigma Aldrich. All measurements were conducted in triplicate, and a Shimadzu UV-1800 spectrophotometer was used for all measurements during antioxidant activity experiments. The IC50 value was used for comparing different radical scavenging effects between investigated extracts, isolated compounds, and positive controls. The ability to inhibit non-site-specific peroxidation mediated by hydroxyl radicals for […], and XSH was determined using the method previously described in the literature. During the experiment, in a reaction mixture that contained 500 μL of 5.6 mM 2-deoxy-D-ribose in KH2PO4-NaOH buffer (50 mM, pH 7.4), 100 μL of 1.0 mM aqueous ascorbic acid, 100 μL of 1.0 mM H2O2, and 200 μL of premixed solution of 100 μM FeCl3 and […] EDTA (1:1 v/v), 100 μL of extract dissolved in water was added. The tubes were vigorously shaken, vortexed, and incubated for 30 min at 50 °C. […] The mixture was vortexed again and heated in a water bath for 30 min at 50 °C. […] Ac stands for absorbance of the control (which contains all reagents, except the tested extract or compound), and As is the absorbance of the sample.

Test [2] is described as follows: DPPH radical scavenging activity. The class given is biochemical. As to conditions: mean ± SD, triplicate. The method, then:
All chemicals for the antioxidant activity test were purchased from Sigma Aldrich. All measurements were conducted in triplicate, and a Shimadzu UV-1800 spectrophotometer was used for all measurements during antioxidant activity experiments. The IC50 value was used for comparing different radical scavenging effects between investigated extracts, isolated compounds, and positive controls. […] [71] with certain modifications. […] The solution was prepared ex tempore and stored in a tinted bottle in the refrigerator until the experiments were performed. […] The reaction mixture was vortexed and allowed to incubate in the dark for one hour, after which the absorbance was measured at 517 nm relative to the blank. […] Ac stands for absorbance of the control (which contains all reagents, except the tested extract or compound), and As is the absorbance of the sample.

Test [3] has as its system MDA-MB 231 cells (breast cancer). Briefly: MTT assay. It counts as cell-based, human. Particulars: data not shown. Background: Tetrazolium dyes change colour on reduction, which living cells bring about.
The nature of test [4]: Superoxide anion radical scavenging activity (NBT/NADH/PMS). The class given is biochemical. Particulars: mean ± SD, triplicate. The method, then:
All chemicals for the antioxidant activity test were purchased from Sigma Aldrich. All measurements were conducted in triplicate, and a Shimadzu UV-1800 spectrophotometer was used for all measurements during antioxidant activity experiments. The IC50 value was used for comparing different radical scavenging effects between investigated extracts, isolated compounds, and positive controls. […] [75] with modifications. […] To initiate the reaction, 0.1 mL of phenazine methosulfate (PMS) solution ([…] in 0.1 M phosphate buffer at pH 7.4) was added to each tube. The mixture was incubated at room temperature for 5 min, and then the absorbance was measured at 560 nm relative to the blank. Ascorbic acid, gallic acid, and Trolox were used as positive controls, and a decrease in absorbance indicated increased superoxide anion radical scavenging activity. […] Ac stands for absorbance of the control (which contains all reagents, except the tested extract or compound), and As is the absorbance of the sample.

In a further test the test system is C. albicans (isolate). In words: Microdilution with resazurin, antifungal. It counts as cell-based, Candida albicans. Particulars: extracts and usnic acid. The protocol: as §1, §2, §3, §4, §5, §6
Another test deals with C. albicans ATCC 10231. In words: Microdilution with resazurin, antifungal. It counts as cell-based, Candida albicans. As to conditions: extracts and usnic acid. The method, then: as §1, §2, §3, §4, §5, §6

Turning to `CN(C)[C@@H]1C(O)=C(C(N)=O)C(=O)[C@@]2(O)C(O)=C3C(=O)c4c(O)cccc4[C@@](C)(O)[C@H]3C[C@@H]12` [TC, tetracycline], the minimum bactericidal concentration (MBC) – broadly, the smallest concentration meeting the test's criterion for killing – turned out to be 0.37 mg/L (≈ 0.833 µM) with B. subtilis ATCC 6633 (Bacillus subtilis, ATCC6633, antibiotics, read-out: MBC); 0.25 mg/L (≈ 0.563 µM) in the test on B. subtilis (isolate) (Bacillus subtilis, antibiotics, read-out: MBC); 6 mg/L (≈ 13.5 µM) with E. coli ATCC 25922 (Escherichia coli, ATCC25922, antibiotics, read-out: MBC); 6 mg/L (≈ 13.5 µM) with E. coli (isolate) (Escherichia coli, antibiotics, read-out: MBC); 2 mg/L (≈ 4.5 µM) in the test with S. Typhimurium (isolate) (Salmonella enterica, antibiotics, read-out: MBC). Besides, the MIC (as a rule, the lowest concentration that inhibits growth of the organism) with B. subtilis ATCC 6633 (Bacillus subtilis, ATCC6633, antibiotics, read-out: MIC) was 0.25 mg/L (≈ 0.563 µM); with B. subtilis (isolate) (Bacillus subtilis, antibiotics, read-out: MIC), < 0.06 mg/L; with E. coli ATCC 25922 (Escherichia coli, ATCC25922, antibiotics, read-out: MIC) it was 4 mg/L (≈ 9 µM); in the test on E. coli (isolate) (Escherichia coli, antibiotics, read-out: MIC), 2 mg/L (≈ 4.5 µM).

Consider usnic acid, for which the “Hydroxyl Radical Scavenging Activity (IC50)” value in test [1] is 120.05 ± 0.85 ^a,b,c,d µg/mL. Also, the MBC was <80 mg/L against B. subtilis ATCC 6633 (extracts and usnic acid); <80 mg/L in the test on B. subtilis (isolate) (extracts and usnic acid); <10000 mg/L in the test on E. coli ATCC 25922 (extracts and usnic acid); <10000 mg/L in the test with E. coli (isolate) (extracts and usnic acid); <10000 mg/L against S. Typhimurium (isolate) (extracts and usnic acid). The MIC is <80 mg/L with B. subtilis ATCC 6633 (extracts and usnic acid); <80 mg/L in the test with B. subtilis (isolate) (extracts and usnic acid); <10000 mg/L in the test on E. coli ATCC 25922 (extracts and usnic acid); <10000 mg/L against E. coli (isolate) (extracts and usnic acid); <10000 mg/L against S. Typhimurium (isolate) (extracts and usnic acid); 10000 mg/L in the test on C. albicans (isolate). Also, the MIC against C. albicans ATCC 10231 is 10000 mg/L. In test [2], the “DPPH Radical Scavenging Activity (IC50)” value is 64.92 ± 1.06 ^a,b,c,d µg/mL. Also, the “Overall inhibitory effect (MTT), in words” value in test [3] is on record as “of minor importance”. For the same compound, the “Superoxide Anion Radical Scavenging Activity (IC50)” value in test [4] is 90.32 ± 0.95 ^a,b,c,d µg/mL. In addition, the MFC against C. albicans (isolate) and with C. albicans ATCC 10231 was <10000 mg/L throughout.
